Read-outs that look alike come from different tables or passages of the source.
What was measured:
[1] = cited from earlier work
[2] = Chlorinated DNAPL dissolution experiments with Citrus Burst-3; assay type: physicochemical; conditions: water, thermodynamic from solid, in presence of chlorinated DNAPL, without cosolvent-surfactant, 25° C., read-out: Observed Solubility in Control Sample
Text: In order to test the treatment of chlorinated compounds, a chlorinated solvent DNAPL was obtained from a site consisting of chlorinated solvents and chlorinated semi-volatile compounds. Composition of the chlorinated solvent DNAPL is presented based on determinations using USEPA Methods 8260 and 8270.
Carbon tetrachloride and tetrachloroethylene comprised more than 87 percent of the DNAPL. Being a saturated compound, carbon tetrachloride is generally a pervasive and difficult to degrade compound once introduced to the subsurface.

[3] = cited from earlier work; remark: listed apart in the source

Structure (SMILES) | log Kow ([1]; Table 2) | log Kow ([1]; Table 5) | Pure Compound Aqueous Solubility [3] | further results
Cc1ccc(C)c(C)c1 [1,2,4-Trimethybenzene] | 3.7 |  |  | 
Cc1ccc2ccccc2c1 [2-Methylnaphthalene] | 3.9 |  |  | 
ClC(Cl)(Cl)Cl [Carbon Tetrachloride (CTC), Carbon Tetrachloride] |  | 2.83 | 129 µg/mL | solubility at 48 h [2]: 100 µg/mL
CCc1ccccc1 [Ethylbenzene] | 3.1 |  |  | 
ClC(Cl)=C(Cl)C(Cl)=C(Cl)Cl [Hexachlorobutadiene (HCBD), Hexachlorobutadiene] |  | 4.90 |  | 
Clc1c(Cl)c(Cl)c2c(Cl)c(Cl)c(Cl)c(Cl)c2c1Cl [Octachloronaphthalene (OCN), Octachloronaphthalene] |  |  | insoluble | 

From patent US9895730B2, “Method for extraction and surfactant enhanced subsurface contaminant recovery” (priority 2007, dated 2018)
